According to patent US11325938B2, “CD73 inhibitors” (ORIC Pharmaceuticals, Inc., priority 2018, dated 2022):

Each compound was assayed against CD73 (Homo sapiens (Human), UniProt P21589) (assay: Biochemical assay: inhibition of CD73 activity (AMP hydrolysis, Malachite Green readout)). Conditions: CD73 0.3208 nM, AMP 15 μM, 25 mM Tris-HCl pH 7.4, RT, absorbance 620 nm.
Procedure, shortened: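 Human CD73 (320 pM final) preincubated 15 min at RT with compounds (10-point ½-log titration from 100 μM, duplicates) in 25 mM Tris-HCl pH 7.4, 5 mM MgCl2, 0.01% Brij-35, 0.01% BSA. 15 μM AMP added, 10 min at RT; released phosphate read by Malachite Green absorbance; IC50 determined.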

Sequence of CD73 (P21589 27-574): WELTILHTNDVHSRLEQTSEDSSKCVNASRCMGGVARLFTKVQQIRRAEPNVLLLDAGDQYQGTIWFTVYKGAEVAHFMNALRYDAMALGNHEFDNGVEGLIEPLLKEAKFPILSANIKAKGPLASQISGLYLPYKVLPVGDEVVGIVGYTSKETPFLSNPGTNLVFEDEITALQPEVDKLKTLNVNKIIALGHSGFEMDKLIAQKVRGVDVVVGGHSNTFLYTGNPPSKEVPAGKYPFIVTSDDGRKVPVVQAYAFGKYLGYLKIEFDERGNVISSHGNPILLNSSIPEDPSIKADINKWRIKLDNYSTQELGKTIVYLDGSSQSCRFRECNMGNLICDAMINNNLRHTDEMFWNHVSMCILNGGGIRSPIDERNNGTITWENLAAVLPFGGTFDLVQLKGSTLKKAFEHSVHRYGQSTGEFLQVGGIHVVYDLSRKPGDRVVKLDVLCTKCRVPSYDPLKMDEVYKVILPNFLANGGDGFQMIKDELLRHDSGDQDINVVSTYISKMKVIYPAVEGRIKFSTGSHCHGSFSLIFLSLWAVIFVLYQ

| SMILES | IC50 [nM] |
| --- | --- |
| O=P(O)(O)COC[C@H]1O[C@@H](n2nnc3c(NC4CCCC4)nc(Cl)cc32)[C@H](O)[C@@H]1O [Example 20, ((((2R,3S,4R,5R)-5-(6-chloro-4-(cyclopentylamino)-1H-[1,2,3]triazolo[4,5-c]pyridin-1-yl)-3,4-dihydroxytetrahydrofuran-2-yl)methoxy)methyl)phosphonic acid] | 100 to 1000 |
| CC(CO)(OC[C@H]1O[C@@H](n2ncc3c(NC4CCC4)nc(Cl)nc32)[C@H](O)[C@@H]1O)P(=O)(O)O (stereo partly drawn) [Example 130, (2-(((2R,3S,4R,5R)-5-(6-chloro-4-(cyclobutylamino)-1H-pyrazolo[3,4-d]pyrimidin-1-yl)-3,4-dihydroxytetrahydrofuran-2-yl)methoxy)-1-hydroxypropan-2-yl)phosphonic acid] | ≤ 100 |
| Nc1nc(Cl)nc2c1cnn2[C@@H]1O[C@H](COC(CO)P(=O)(O)O)[C@@H](O)[C@H]1O (stereo partly drawn) [Example 59, (1-(((2R,3S,4R,5R)-5-(4-amino-6-chloro-1H-pyrazolo[3,4-d]pyrimidin-1-yl)-3,4-dihydroxytetrahydrofuran-2-yl)methoxy)-2-hydroxyethyl)phosphonic acid] | 100 to 1000 |
| C[C@H](O)COc1nc(NC2CCCC2)c2cnn([C@@H]3O[C@H](COC(CO)(CO)P(=O)(O)O)[C@@H](O)[C@H]3O)c2n1 (racemic) [Example 181, rac-(2-(((2R,3S,4R,5R)-5-(4-(cyclopentylamino)-6-((S)-2-hydroxypropoxy)-1H-pyrazolo[3,4-d]pyrimidin-1-yl)-3,4-dihydroxytetrahydrofuran-2-yl)methoxy)-1,3-dihydroxypropan-2-yl)phosphonic acid] | ≤ 100 |
| O=P(O)(O)C(CO)(Cc1nn[nH]n1)OC[C@H]1O[C@@H](n2ncc3c(NCC4CC4)nc(Cl)nc32)[C@H](O)[C@@H]1O (mixture of isomers) [Example 184, rac-(2-(((2R,3S,4R,5R)-5-(6-chloro-4-((cyclopropylmethyl)amino)-1H-pyrazolo[3,4-d]pyrimidin-1-yl)-3,4-dihydroxytetrahydrofuran-2-yl)methoxy)-1-hydroxy-3-(2H-tetrazol-5-yl)propan-2-yl)phosphonic acid] | ≤ 100 |
| C[C@](CS(C)(=O)=O)(OC[C@H]1O[C@@H](n2ncc3c(NC4CCCC4)nc(Cl)nc32)[C@H](O)[C@@H]1O)P(=O)(O)O [Example 73, ((S)-2-(((2R,3S,4R,5R)-5-(6-chloro-4-(cyclopentylamino)-1H-pyrazolo[3,4-d]pyrimidin-1-yl)-3,4-dihydroxytetrahydrofuran-2-yl)methoxy)-1-(methyslulfonyl)propan-2-yl)phosphonic acid] | ≤ 100 |
| O=P(O)(O)C(CO)(CCO)OC[C@H]1O[C@@H](n2ncc3c(NC4CCCC4)nc(Br)nc32)[C@H](O)[C@@H]1O (stereo partly drawn) [Example 37, (2-(((2R,3S,4R,5R)-5-(6-bromo-4-(cyclopentylamino)-1H-pyrazolo[3,4-d]pyrimidin-1-yl)-3,4-dihydroxytetrahydrofuran-2-yl)methoxy)-1,4-dihydrobutan-2-yl)phosphonic acid] | ≤ 100 |
| C[C@](CO)(OC[C@H]1O[C@@H](n2ncc3c(NC4CCCC4)nc(Cl)nc32)[C@H](O)[C@@H]1O)P(=O)(O)O [Example 62, ((S)-2-(((2R,3S,4R,5R)-5-(6-chloro-4-(cyclopentylamino)-1H-pyrazolo[3,4-d]pyrimidin-1-yl)-3,4-dihydroxytetrahydrofuran-2-yl)methoxy)-1-hydroxypropan-2-yl)phosphonic acid] | ≤ 100 |
| CS(=O)(=O)C(OC[C@H]1O[C@@H](n2ncc3c(NC4CCCC4)nc(Cl)nc32)[C@H](O)[C@@H]1O)P(=O)(O)O (stereo partly drawn) [Example 38, ((((2R,3S,4R,5R)-5-(6-chloro-4-(cyclopentylamino)-1H-pyrazolo[3,4-d]pyrimidin-1-yl)-3,4-dihydroxytetrahydrofuran-2-yl)methoxy)(methylsulfonyl)methyl)phosphonic acid] | 100 to 1000 |

Next, values leading:

| IC50 [nM] | SMILES |
| --- | --- |
| ≤ 100 | O=P(O)(O)[C@](CO)(Cc1nn[nH]n1)OC[C@H]1O[C@@H](n2ncc3c(NC4CCC4)nc(Cl)nc32)[C@H](O)[C@@H]1O (racemic) [Example 214, rac-((R)-2-(((2S,3R,4S,5S)-5-(6-chloro-4-(cyclobutylamino)-1H-pyrazolo[3,4-d]pyrimidin-1-yl)-3,4-dihydroxytetrahydrofuran-2-yl)methoxy)-1-hydroxy-3-(2H-tetrazol-5-yl)propan-2-yl)phosphonic acid] |
| ≤ 100 | C[C@H](P(=O)(O)O)S(=O)(=O)C[C@H]1O[C@@H](n2ncc3c(NC4CCCC4)nc(Cl)nc32)[C@H](O)[C@@H]1O [Example 7, ((R)-1-((((2S,3S,4R,5R)-5-(6-Chloro-4-(cyclopentylamino)-1H-pyrazolo[3,4-d]pyrimidin-1-yl)-3,4-dihydroxytetrahydrofuran-2-yl)methyl)sulfonyl)ethyl)phosphonic acid] |
| ≤ 100 | C[C@@](CO)(OC[C@H]1O[C@@H](n2ncc3c(NC4CCCC4)nc(OCCO)nc32)[C@H](O)[C@@H]1O)P(=O)(O)O [Example 134, ((R)-2-(((2R,3S,4R,5R)-5-(4-(cyclopentylamino)-6-(2-hydroxyethoxy)-1H-pyrazolo[3,4-d]pyrimidin-1-yl)-3,4-dihydroxytetrahydrofuran-2-yl)methoxy)-1-hydroxypropan-2-yl)phosphonic acid] |
| ≤ 100 | O=P(O)(O)C(CO)(CO)OC[C@H]1O[C@@H](n2ncc3c(N[C@@H]4CCCc5ccccc54)nc(Cl)nc32)[C@H](O)[C@@H]1O (racemic) [Example 189, rac-(2-(((2R,3S,4R,5R)-5-(6-chloro-4-(((R)-1,2,3,4-tetrahydronaphthalen-1-yl)amino)-1H-pyrazolo[3,4-d]pyrimidin-1-yl)-3,4-dihydroxytetrahydrofuran-2-yl)methoxy)-1,3-dihydroxypropan-2-yl)phosphonic acid] |
| ≤ 100 | C[C@@](COCCO)(OC[C@H]1O[C@@H](n2ncc3c(NC4CCCC4)nc(Cl)nc32)[C@H](O)[C@@H]1O)P(=O)(O)O [Example 124, ((R)-2-(((2R,3S,4R,5R)-5-(6-chloro-4-(cyclopentylamino)-1H-pyrazolo[3,4-d]pyrimidin-1-yl)-3,4-dihydroxytetrahydrofuran-2-yl)methoxy)-1-(2-hydroxyethoxy)propan-2-yl)phosphonic acid] |
| ≤ 100 | CC(CO)(OC[C@H]1O[C@@H](n2ncc3c(NC4CCCC4)nc(OCCO)nc32)[C@H](O)[C@@H]1O)P(=O)(O)O (stereo partly drawn) [Example 68, (2-(((2R,3S,4R,5R)-5-(4-(cyclopentylamino)-6-(2-hydroxyethoxy)-1H-pyrazolo[3,4-d]pyrimidin-1-yl)-3,4-dihydroxytetrahydrofuran-2-yl)methoxy)-1-hydroxypropan-2-yl)phosphonic acid] |
| ≤ 100 | CC(COCCO)(OC[C@H]1O[C@@H](n2ncc3c(NC4CCCC4)nc(Cl)nc32)[C@H](O)[C@@H]1O)P(=O)(O)O (stereo partly drawn) [Example 85, (2-(((2R,3S,4R,5R)-5-(6-Chloro-4-(cyclopentylamino)-1H-pyrazolo[3,4-d]pyrimidin-1-yl)-3,4-dihydroxytetrahydrofuran-2-yl)methoxy)-1-(2-hydroxyethoxy)propan-2-yl)phosphonic acid] |
| ≤ 100 | O=P(O)(O)C(CO)(CO)OC[C@H]1O[C@@H](n2ncc3c(N[C@@H]4CCc5ccccc54)nc(Cl)nc32)[C@H](O)[C@@H]1O [Example 113, (2-(((2R,3S,4R,5R)-5-(6-chloro-4-(((R)-2,3-dihydro-1H-inden-1-yl)amino)-1H-pyrazolo[3,4-d]pyrimidin-1-yl)-3,4-dihydroxytetrahydrofuran-2-yl)methoxy)-1,3-dihydroxypropan-2-yl)phosphonic acid] |
| ≤ 100 | O=P(O)(O)C(CO)(COCC(F)(F)F)OC[C@H]1O[C@@H](n2ncc3c(NC4CCCC4)nc(Cl)nc32)[C@H](O)[C@@H]1O (mixture of isomers) [Example 208, rac-(2-(((2R,3S,4R,5R)-5-(6-chloro-4-(cyclopentylamino)-1H-pyrazolo[3,4-d]pyrimidin-1-yl)-3,4-dihydroxytetrahydrofuran-2-yl)methoxy)-1-hydroxy-3-(2,2,2-trifluoroethoxy)propan-2-yl)phosphonic acid] |
| ≤ 100 | CC(CO)(OC[C@H]1O[C@@H](n2ncc3c(N[C@H]4CCC45CCC5)nc(Cl)nc32)[C@H](O)[C@@H]1O)P(=O)(O)O (stereo partly drawn) [Example 136, (2-(((2R,3S,4R,5R)-5-(6-chloro-4-(((S)-spiro[3.3]heptan-1-yl)amino)-1H-pyrazolo[3,4-d]pyrimidin-1-yl)-3,4-dihydroxytetrahydrofuran-2-yl)methoxy)-1-hydroxypropan-2-yl)phosphonic acid] |
| ≤ 100 | O=P(O)(O)[C@@](CO)(Cc1nn[nH]n1)OC[C@H]1O[C@@H](n2ncc3c(NC4CCCC4)nc(Cl)nc32)[C@H](O)[C@@H]1O [Example 104, ((R)-2-(((2R,3S,4R,5R)-5-(6-chloro-4-(cyclopentylamino)-1H-pyrazolo[3,4-d]pyrimidin-1-yl)-3,4-dihydroxytetrahydrofuran-2-yl)methoxy)-1-hydroxy-3-(2H-tetrazol-5-yl)propan-2-yl)phosphonic acid] |
| ≤ 100 | O=P(O)(O)C(CO)OC[C@@H]1C[C@@H](O)[C@H](n2ncc3c(NC4CCCC4)nc(Cl)nc32)O1 (stereo partly drawn) [Example 40, (1-(((2S,4R,5R)-5-(6-chloro-4-(cyclopentylamino)-1H-pyrazolo[3,4-d]pyrimidin-1-yl)-4-hydroxytetrahydrofuran-2-yl)methoxy)-2-hydroxyethyl)phosphonic acid] |
| ≤ 100 | CC1(Nc2nc(Cl)nc3c2cnn3[C@@H]2O[C@H](CO[C@](C)(CO)P(=O)(O)O)[C@@H](O)[C@H]2O)CCCC1 [Example 106, ((S)-2-(((2R,3S,4R,5R)-5-(6-chloro-4-((1-methylcyclopentyl)amino)-1H-pyrazolo[3,4-d]pyrimidin-1-yl)-3,4-dihydroxytetrahydrofuran-2-yl)methoxy)-1-hydroxypropan-2-yl)phosphonic acid] |
